Experimental data reported in patent publication US20150147385A1, “INTRAVENOUS SYNTHETIC CURCUMIN (S-CURCUMIN) FOR THE TREATMENT OF PROLIFERATIVE DISORDERS” (SignPath Pharma, Inc., priority 2013, published 2015).
Values after ≈ are worked out from the molar mass of the structure shown. Like-named read-outs stand apart in the source and are kept apart here.

How the values were obtained:
[1] = system: breast cancer cell line MCF10ACA1H; test: Scratch assay (wound healing) in MCF10ACA1H; format: cell-based, human; settings: 12 hour exposure
[2] = Solubilities of S-curcumin and C3-complex curcumin in different organic solvents; format: physicochemical; settings: for solubility: organic solvent or mixture, read-out: Conc. (solubility)
From the text: Comparison of PLGA C3-complex-curcumin vs PLGA S-curcumin indicated the following differences. The solubilities of 99.2% S-Curcumin in all four solvents. […] This confers improved manufacturing capability, and attributes to different pharmacokinetics and pharmacodynamics in in vivo settings (Table 1). [table]

Solubility compared with C3 complex ([2]; normalized to equal concentrations, ethanol, ethyl acetate, acetone, acetonitrile): greater solubility
solubility ([2]; solvent acetone): 42300 µg/mL (≈ 115 mM)
solubility ([2]; solvent acetonitrile): 5440 µg/mL (≈ 14.8 mM)
solubility ([2]; solvent ethanol): 3800 µg/mL (≈ 10.3 mM)
solubility ([2]; solvent ethyl acetate): 10400 µg/mL (≈ 28.2 mM)
1 g of solvent solubilize in solvent ([2]; solvent acetone): 23.6 mL
Physical appearance of solubility ([2]; solvent acetone): Fully
1 g of solvent solubilize in solvent ([2]; solvent acetonitrile): 184 mL
Physical appearance of solubility ([2]; solvent acetonitrile): Partial
1 g of solvent solubilize in solvent ([2]; solvent ethanol): 263 mL
Physical appearance of solubility ([2]; solvent ethanol): Partial
1 g of solvent solubilize in solvent ([2]; solvent ethyl acetate): 96.2 mL
Physical appearance of solubility ([2]; solvent ethyl acetate): Partial
Structure (SMILES): COc1cc(C=CC(=O)CC(=O)C=Cc2ccc(O)c(OC)c2)ccc1O [S-curcumin, 1,7-bis(4-hydroxy-3-methoxyphenyl)-1,6-heptadiene-3,5-dione]
More effective than C3-curcumin in interfering with wound healing [1]: 30%
